According to patent publication US7465720B2, “Proteasome inhibiting β-lactam compounds” (President and Fellows of Harvard College, priority 2005, dated 2008):
Like-named read-outs stand apart in the source and are kept apart here. Where a SMILES comes first, the peptide text is derived from it. The star is where a group is joined. Cbz = O=C(OCc1ccccc1)*

How the values were obtained:
[1] = molecular target: T1, 20S proteasome (Homo sapiens, UniProt P28074); experiment: Inactivation of 20S proteasome, hydrolysis of Suc-Leu-Leu-Val-Tyr-AMC followed by fluorescence; assay type: biochemical; conditions: for kinact/KI: read-out: kobs/[3]
T1 construct: purchased Boston Biochem
Experimental: Determination of the inhibitory activity of Compound 3 against the 20S proteasome (see reference 12) was carried out by a modification of the method reported by Dick et al. See reference 11. […] See reference 12. The progress of proteasome inactivation was determined by addition of Suc-LLVY-AMC to a 2 mL aliquot of the incubation experiment and monitoring the rate of production of free AMC by fluorescence spectrophotometry.
A plot of .ln(fluorescence/time) vs. time provided a linear decay whose slope is kobs for proteasome inactivation (FIG. 2). The rate of proteasome inactivation was proportional to the amount of Compound 3 present in the incubation experiments. The 10 μM and 30 μM time course experiments gave values for kobs/[3] as 7 M-1s-1 and 6.7 M-1s-1 respectively. In order to monitor background inactivation of 20S proteasome (see reference 13), each of these of experiments was run side by side with a control experiment identical in all respects except for the exclusion of Compound 3.
Inactivation of 20S proteasome by Compound 3. To separate 50 mL vials containing 12 mL of pH 7.9 buffer (20 mM hepes, 0.5 mM EDTA) was added 60 μL of a stock solution of 20S proteasome (20 mM Hepes, 0.5 mM EDTA, pH 7.9, 100 μg/mL) and aqueous sodium dodecylsulfate (10% w/v, 30 μL). The initial rate of hydrolysis of Suc-Leu-Leu-Val-TyrAMC was determined by addition of a solution of Suc-Leu-Leu-Val-Tyr-AMC (10 mM in DMSO, 10 μL) to a 2 mL aliquot of each of the above solutions. The initial rate of free AMC production was monitored at 37° C. by fluorescence spectrophotometry as described by Dick et al.* To one of the stock solutions was added a solution of the β-lactam 3 (10 mM in DMSO, 12 μL). Both solutions were incubated side by side at 37° C. Aliquots were removed at time points as assayed as above. The data for both the 10 μM experiment and an identical experiment utilizing 30 μM using a 30 mM stock solution of 3 are tabulated below. * See, McCormack, T.; Baumeister, W.; Grenier, L.; Moomaw, C.; Plamondon, L.; Pramanik, B.; Slaughter, C.; Soucy, F.; Stein, R.; Zuhl, F.; Dick, L., J. Biol. Chem. 1996, 272, 26103-26109.

[2] = Stability of Compound 3 in solution at pH 7; assay type: physicochemical
Text: Oxidative cleavage of the (S)(−)-(4-methoxyphenyl)-ethylamide protecting group in Compound 14 cleanly afforded the β-lactam, Compound 3, in 89% yield.

[3] = test system: PC12 cells; conditions: cited from earlier work
[4] = Part 2, 30 μM of Compound 3, time 0 mm
[5] = Part 2, 30 μM of Compound 3, time 47 mm
[6] = Part 2, 30 μM of Compound 3, time 101 mm
[7] = Part 2, 30 μM of Compound 3, time 177 mm

For `CC(C)[C@H](O)[C@@]12NC(=O)[C@H](CCCl)[C@@H]1NC2=O` [Compound 3], the remaining activity at 10 µM ([1]; 10 μM 3, after 9.5 h, read-out: initial proteasome activity remaining) was under 10%, the “% Initial Velocity” value ([1]; 10 μM Compound 3, time 0 h) was 100% and the “Experiment with 10 μM 3 (units F/s)” value ([1]; 10 μM Compound 3, time 0 h) was 0.59 units F/s. The “% Initial Velocity” value ([1]; 10 μM Compound 3, time 1.5 h) was 57%, the “Experiment with 10 μM 3 (units F/s)” value ([1]; 10 μM Compound 3, time 1.5 h) was 0.337 units F/s and the “% Initial Velocity” value ([1]; 10 μM Compound 3, time 2.5 h) was 45%. The “Experiment with 10 μM 3 (units F/s)” value ([1]; 10 μM Compound 3, time 2.5 h) was 0.267 units F/s, the “% Initial Velocity” value ([1]; 10 μM Compound 3, time 4.5 h) was 26% and the “Experiment with 10 μM 3 (units F/s)” value ([1]; 10 μM Compound 3, time 4.5 h) was 0.156 units F/s. The “% Initial Velocity” value ([1]; 10 μM Compound 3, time 6.5 h) was 15%, the “Experiment with 10 μM 3 (units F/s)” value ([1]; 10 μM Compound 3, time 6.5 h) was 0.09 units F/s and the “% Initial Velocity” value ([1]; 10 μM Compound 3, time 9.5 h) was 7.4%. The “Experiment with 10 μM 3 (units F/s)” value ([1]; 10 μM Compound 3, time 9.5 h) was 0.044 units F/s, the remaining activity at 30 µM ([1]; 30 μM 3, after 3 h, read-out: initial proteasome activity remaining) was under 10% and the “% Initial Velocity” value [1, 4] was 100%. The “Experiment with 10 μM 3 (units F/s)” value [1, 4] was 0.526 units F/s, the “% Initial Velocity” value [1, 5] was 44% and the “Experiment with 10 μM 3 (units F/s)” value [1, 5] was “.233 units F/s”. The “% Initial Velocity” value [1, 6] was 17%, the “Experiment with 10 μM 3 (units F/s)” value [1, 6] was 0.090 units F/s and the “% Initial Velocity” value [1, 7] was 7%. The “Experiment with 10 μM 3 (units F/s)” value [1, 7] was 0.039 units F/s, the kinact/KI ([1]; pH 7.9, 10 μM time course) was 7 M⁻¹ s⁻¹ and the kinact/KI ([1]; pH 7.9, 30 μM time course) was 6.7 M⁻¹ s⁻¹. The “stability compared with the corresponding β-lactone and Compounds 1 and 2” value ([2]; found to date) was “much more stable”, the “stability at pH 7” value ([2]; pH 7, 23° C., 24 h) was “completely stable” and the melting point was 205 to 207 °C.

In the case of `CC(C)C[C@@H](C=O)NC(=O)[C@H](CC(C)C)NC(=O)[C@H](CC(C)C)NC(=O)OCc1ccccc1` [benzyloxycarbonyl (Z)-Leu-Leu-leucinal] (Cbz-Leu-Leu-Leu-aldehyde), the “optimal concentration for inducing neurite outgrowth” value [3] is given as 30 nM.
